Measurements as given in patent US8008354B2, “Death receptor sensitizing compounds and methods of use therefor” (Burnham Institute for Medical Research, priority 2006, dated 2011).
Structures can show the parent of a compound that is named as a salt. Where two headings read alike, the source gives them in different places.

What was measured:
PPC-1 cells [1] = assay: MTT cell viability of PPC-1 cells treated with compound with or without CH-11 anti-FAS antibody; format: cell-based; conditions: for IC50: read-out: LD50 (μM) PPCl; for LD50 (μM) (PPCl, CH-11): PPC-1 cells with CH-11 100 ng/mL, MTT 24 hours, LD50 = concentration that reduces cell viability by 50%
Experimental: FIGS. 2A-C. […] PPC-1 cells (1×10^4) were seeded in 96 well plates. The next day, cells were treated with increasing concentrations of the sensitizing compounds with (open squares) and without (closed squares) CH-11 antibody (100 ng/mL). Cell viability was measured 24 hours later by MTT assay. Cell viability is expressed as a mean percentage of untreated cells+SD (n=3). The Chembridge identification numbers of the compounds are provided.
High throughput screening. […] PPC-1 cells (1×10^4) were seeded overnight into 96 well, flat-bottom plates (Costar, Cambridge, Mass.) in 100 μL of medium containing 2.5% FCS. […] CH-11 antibody (100 ng/mL) was then added, and the cells were incubated for 24 hours before assessing cell viability by a 3-(4,5-Dimethylthiazol-2-yl)-2,5-diphenyltetrazolium Bromide (MTT) dye reduction assay (Sigma).
Cell death assays. […] Absorbance readings were plotted against a standard curve to derive the corresponding cell number, and cell viability was expressed as a percentage relative to untreated cells.

FLIP = FLIP protein levels by SDS-PAGE/immunoblotting; format: cell-based, human; conditions: PPC-1 cells
Experimental: FIG. 7. Effect of FAS-sensitizing compounds on levels of FLIP protein and DISC activation. (A) PPC-1 cells (2×10^5) were seeded into 35 mm plates and treated the next day with various FAS-sensitizing compounds (30 μM), with (+) or without (−) CH-11 antibody (100 ng/mL). As a positive control, cells were treated with CDDO (5 μM). Cell lysates were prepared 24 hours later, normalized for total protein content, and analyzed by SDS-PAGE/immunoblotting using antibodies specific for FLIP or a-tubulin. (B) PPC-1, OVCAR-3, T47D, MDA-MB-468 and DU 145 cells (2×10^5) were seeded into 35 mm plates and treated the next day with 5809354 (40 μM). Cell lysates were prepared 24 hours after treatment, normalized for total protein and analyzed by SDS-PAGE/immunoblotting using antibodies specific for FLIP or β-actin. (C) PPC-1, OVCAR-3, T47D, and DU 145 cells (2×10^5) were seeded into 35 mm plates and treated the next day with 5809354 (40 μM) (black bars) or buffer control (white bars). mRNA was extracted 24 hours after treatment. Levels of the long isoform of FLIP and GAPDH were detected by quantitative RT-PCR. Levels of FLIP were normalized for GAPDH expression and expressed as a mean fold change+SD over buffer treated cells. (D) PPC-1 cells (2×10^5) were seeded into 35 mm plates and treated the next day with various FAS-sensitizing compounds (30 μM) with (+) or without (−) CH-11 (100 ng/mL). Cell lysates were prepared 24 hours after treatment, normalized for total protein, and analyzed by SDS-PAGE/immunoblotting using antibodies specific for caspase-8 and β-actin.
(§1) FIG. 13. Small molecule down-regulation of FLIP sensitizes prostate cancer cells to anoikis. (A) PPC-1 cells were seeded overnight in adherent conditions and then treated with increasing concentrations of 5809354 for 16 hours. After incubation, cells were harvested. Total cellular RNA was extracted and mRNA levels of the long isoform of FLIP (FLIPL), the short isoform of FLIP (FLIPS), or rRNA levels of 18S were detected by real-time RT-PCR. Data were normalized using the ΔΔCT method and expressed as the mean±SEM percent of […] expression relative to untreated controls. (B) PPC-1 cells were cultured and treated as in panel A. Total cellular protein was isolated and analyzed by SDS-PAGE immunoblotting using anti-FLIP and anti-Actin antibodies. (C) PPC-1 cells were seeded overnight in adherent conditions and then exposed to increasing concentrations of 5809354 in the presence or absence of Fas-activating antibody (CH-11, 100 ng/mL). Thirty hours after incubation, cell viability was determined using the MTS assay. Data represents the mean±SEM of percent of viable cells. (D) PPC-1 cells were seeded overnight in adherent or suspension conditions and then treated with increasing concentrations of 5809354 for 30 hours. After incubation, apoptosis was measured by flow cytometry to detect cell surface annexin V expression and PI. Data represents the mean±SEM of percent of viable cells. (E) Cells were harvested, fixed, stained with DAPI, and nuclear morphology analyzed by fluorescence microscopy. Arrowheads refer to fragmented nuclei indicative of apoptosis. […] Thirty hours after incubation, cells were harvested and equal volumes plated in a colony formation assay. One week later, cells were stained with methylene blue and the number of colonies counted. Data represents the mean ±SEM percent of colonies relative to untreated controls.
Immunoblot analysis. Protein extracts were obtained by washing cells with phosphate-buffered saline (PBS) [pH 7.4] and suspending the cells in lysis buffer [10 mM Tris (pH 7.4), 150 mM NaCl, 0.1% Triton X-100, 0.5% sodium deoxycholate, and 5 mM EDTA] containing protease inhibitors (Complete tablets; Roche, Indianapolis, Ind.). Immunoblot assays were performed as described in Carter et al. (2005). […]

PPC-1 cells [2] = assay: MTS viability of adherent PPC-1 cells with or without CH-11, thirty hours; format: cell-based, human; conditions: CH-11 100 ng/mL
Experimental: FIG. 13. Small molecule down-regulation of FLIP sensitizes prostate cancer cells to anoikis. (A) PPC-1 cells were seeded overnight in adherent conditions and then treated with increasing concentrations of 5809354 for 16 hours. After incubation, cells were harvested. Total cellular RNA was extracted and mRNA levels of the long isoform of FLIP (FLIPL), the short isoform of FLIP (FLIPS), or rRNA levels of 18S were detected by real-time RT-PCR. Data were normalized using the ΔΔCT method and expressed as the mean±SEM percent of […] expression relative to untreated controls. (B) PPC-1 cells were cultured and treated as in panel A. Total cellular protein was isolated and analyzed by SDS-PAGE immunoblotting using anti-FLIP and anti-Actin antibodies. […] Thirty hours after incubation, cell viability was determined using the MTS assay. […] After incubation, apoptosis was measured by flow cytometry to detect cell surface annexin V expression and PI. […] (E) Cells were harvested, fixed, stained with DAPI, and nuclear morphology analyzed by fluorescence microscopy. […] One week later, cells were stained with methylene blue and the number of colonies counted. […]
Cell viability apoptosis, colony formation, and caspase activation assays. Cell viability was assessed using the MTS reduction assay (Promega, Madison, Wis., USA) according to the manufacturer's protocols and as described in Schimmer et al. (2006). […]

PPC-1 cells [3] = assay: Anoikis of PPC-1 cells in suspension versus adherent conditions (annexin V/PI, DAPI, colony formation); format: cell-based, human
Experimental: FIG. 12. Depletion of endogenous FLIP levels by siRNA sensitizes malignant cells to anoikis. (A) PPC-1 cells were seeded in adherent conditions overnight and then transfected with 25 nM anti-FLIP siRNA (siFLIP) or control luciferase siRNA (siCtrl). Thirty hours after transfection, cells were harvested, total protein isolated and analyzed by SDS-PAGE immunoblotting using anti-FLIP and anti-actin antibodies. (B) PPC-1 cells were transfected with increasing concentrations of siFLIP or siCtrl. After transfection, cells were treated with CH-11 Fas activating antibody (100 ng/ml). Thirty hours after incubation, cells were harvested and apoptosis measured by flow cytometry to detect cell surface annexin V expression and PI uptake. Data represents the mean±SEM percent of viable cells. (C) PPC-1 cells were transfected with increasing concentrations of siFLIP or siCtrl. After transfection, cells were subcultured under suspension conditions for 30 hours and then harvested. Apoptosis was measured by flow cytometry to detect cell surface annexin V expression and PI uptake. Data represents the mean±SEM of percent of viable cells. (D) Equal volumes of PPC-1 cells from panel C were replated under adherent conditions to permit clonogenic growth. One week after replating, cells were stained with methylene blue and the number of colonies counted. Data represents the mean±SEM percent of colonies compared to untreated controls.
as §1
FIG. 15. 5809354 sensitizes cells to anoikis through a caspase 8 dependent mechanism. (A) PPC-1 cells (5×10^4) were cultured under suspension conditions overnight and then treated with 5809354 in the presence or absence of the pan-caspase inhibitor z-VAD-fink (100 μM). Thirty hours after incubation, anoikis was determined by flow cytometry to detect cell surface annexin V expression and PI uptake. Data represents the mean±SEM percent of viable cells or colonies compared to untreated controls. (B) PPC-1 cells (5×10^4) were cultured in suspension conditions overnight and then treated with 5809354 (60 μM). […]

[4] = Homo sapiens, PPC-1, 24 h, PPC-1 cells, compound alone without CH-11, MTT 24 hours

Row | Structure (SMILES) | IC50 (PPC-1 cells [1]; [4]) [µM] | LD50 (μM) (PPCl, CH-11) (PPC-1 cells [1]) | also measured
1 | C/C(CC(=O)Nc1ccc(Cl)c(C(F)(F)F)c1)=N\NC(=O)c1cnccn1 [N-(4-Chloro-3-trifluoromethyl-phenyl)-3-[(pyrazine-2-carbonyl)-hydrazono]-butyramide] | 67 ± 3 | 11 ± 3 µM | –
2 | CC(=O)CC(=O)Nc1cc(C(F)(F)F)ccc1Cl [N-[2-chloro-5-(trifluoromethyl)phenyl]-3-oxobutanamide] | 75 ± 1 | 65 ± 5 µM | –
3 | O=C(CCc1ccccc1)Nc1cc(C(F)(F)F)ccc1Cl [N-[2-chloro-5-(trifluoromethyl)phenyl]-3-phenylpropanamide] | > 100 | >100 µM | –
4 | O=C(CCc1ccccc1)Nc1ccc(Cl)cc1C(F)(F)F [N-[4-chloro-2-(trifluoromethyl)phenyl]-3-phenylpropanamide] | > 100 | >100 µM | –
5 | O=C(CCc1ccccc1)Nc1ccc(Cl)c(C(F)(F)F)c1 [N-[4-chloro-3-(trifluoromethyl)-phenyl]-3-phenyl-proionamide] | 85 ± 3 | 11 ± 1 µM | –
6 | O=C(Nc1ccc(Cl)c(C(F)(F)F)c1)c1cccs1 [N-[4-chloro-3-(trifluoromethyl)phenyl]-2-thiophenecarboxamide] | 96 ± 1 | 35 ± 11 µM | –
7 | CC(C)(C)c1cc(C(=O)Cn2c(=N)n(CCN3CCCCC3)c3ccccc32)cc(C(C)(C)C)c1O.Cl [compound 5529457, 1-(3,5-di-tert-butyl-4-hydroxyphenyl)-2-(2-imino-3-(2-(piperidin-1-yl)ethyl)-2,3-dihydro-1H-benzo[d]imidazol-1-yl)ethanone hydrochloride] | 7.5 | 3.7 µM | –
8 | Cn1c(=N)n(CC(=O)c2cc(C(C)(C)C)c(O)c(C(C)(C)C)c2)c2ccccc21 [compound 5541203, 1-(3,5-di-tert-butyl-4-hydroxyphenyl)-2-(2-imino-3-methyl-2,3-dihydro-1H-benzo[d]imidazol-1-yl)ethanone hydrobromide] | 45 | 25.7 µM | EC50 (PPC-1 cells [1]; Homo sapiens, PPC-1, with anti-FAS antibody, read-out: EC50 as a FAS-sensitizer in PPC1 cells): 25.7 µM; IC50 (PPC-1 cells [1]; PPC-1 cells, compound alone without CH-11, MTT 24 hours; hydrobromide)): 45.4 µM; levels of FLIP protein (FLIP; 30 μM, with or without CH-11, 24 hours, long isoform): had little effect
9 | Br.Cc1ccc(Cn2c(=N)n(CC(=O)c3cc(C(C)(C)C)c(O)c(C(C)(C)C)c3)c3ccccc32)cc1 [compound 5651311, 1-(3,5-di-tert-butyl-4-hydroxyphenyl)-2-(2-imino-3-(4-methylbenzyl)-2,3-dihydro-1H-benzo[d]imidazol-1-yl)ethanone hydrobromide] | 19 | 9 µM | –
10 | Br.CC(C)(C)c1cc(C(=O)Cn2c(=N)n(Cc3ccccc3)c3ccccc32)cc(C(C)(C)C)c1O [compound 5657593, 2-(3-benzyl-2-imino-2,3-dihydro-1H-benzo[d]imidazol-1-yl)-1-(3,5-di-tert-butyl-4-hydroxyphenyl)ethanone hydrobromide] | 9.1 | 3.4 µM | –
11 | O=C(Cc1ccc(Cl)cc1)N1CCN(C/C=C/c2ccccc2)CC1 [compound 5703229, 1-[(4-chlorophenyl)acetyl]-4-[(2e)3-phenylprop-2-enyl]piperazine] | – | 34+4 μM | IC50 (PPC-1 cells [1]; Homo sapiens, PPC-1, 24 h): 50 µM
12 | CCOCCCNC(=O)CCCOc1ccc(Cl)cc1C [compound 7271570, (4-(4-chloro-2-methylphenoxy))-N-(3-ethoxypropyl)-butanamide] | – | – | FLIP protein expression (FLIP; Example 2, increasing concentrations, 16 hours): failed to decrease FLIP levels; viability in the presence of Fas-activating antibody (CH-11) (PPC-1 cells [2]): failed to sensitize; sensitization to anoikis (PPC-1 cells [3]; suspension conditions, 30 hours): failed to sensitize; colony formation after suspension culture (PPC-1 cells [3]; thirty hours in suspension, colonies counted one week later): inactive
